This is an account of results in PubChem BioAssay (NCI).

“And” between values parts separate entries of the source, which are not always exact repeats. Equal entries are not always repeated.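 Cells were grown in 96-well plates and exposed to each compound for 48 hours at five concentrations; endpoints were interpolated linearly between bracketing concentrations, or set to the highest concentration if not reached. GI50 = concentration required for 50% inhibition of growth. At the TGI there is no net growth.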

Some test systems named below: BT-549 breast; HS 578T breast; MCF7 breast; MDA-MB-231 breast; NCI/ADR-RES ovarian; T-47D breast.
Experiment in all cases: NCI-60 cell line screen, 48 h

Take `CCNC(=O)O[C@H]1CN[C@H](C#Cc2cc3ncnc(Nc4ccc(OCc5cccc(F)c5)c(Cl)c4)c3s2)C1`: the GI50 in the assay with BT-549 breast is 3.89 µM; in the assay on HS 578T breast, 4.82 µM; in the assay on MCF7 breast, 8.95 µM; with MDA-MB-231 breast, 4.35 µM; in the assay on NCI/ADR-RES ovarian, 6.19 µM; with T-47D breast it was 1.49 µM. The TGI is 9.38 µM in the assay on BT-549 breast; 24.6 µM with HS 578T breast; above 25 µM in the assay with MCF7 breast; above 16 µM in the assay on MDA-MB-231 breast; above 25 µM in the assay with NCI/ADR-RES ovarian; above 25 µM in the assay on T-47D breast.

As for `COc1cc(C2CC(c3ccc(Nc4ccnc5cc(Cl)ccc45)cc3)=NN2c2ccc(Cl)cc2)cc(OC)c1OC` (stereo unspecified), the GI50 with BT-549 breast is 2.93 µM; in the assay on HS 578T breast, 2.18 µM; in the assay on MCF7 breast, 0.86 µM; in the assay with MDA-MB-231 breast it was 1.93 µM; with NCI/ADR-RES ovarian, 1.7 µM; in the assay with T-47D breast it was 2.13 µM. Further, the TGI is above 100 µM with BT-549 breast; above 100 µM in the assay on HS 578T breast; above 100 µM with MCF7 breast; 27.1 µM in the assay with MDA-MB-231 breast; above 100 µM in the assay on NCI/ADR-RES ovarian; above 100 µM with T-47D breast.

For `Cc1ccc(Cl)cc1NC(=O)c1sc2nc3c(cc2c1N)C(=O)CCC3`, the GI50 in the assay on HS 578T breast was 2.34 µM; with MCF7 breast, 4.67 µM; in the assay with NCI/ADR-RES ovarian, 5.28 µM; in the assay with T-47D breast, above 100 µM. Besides, the TGI in the assay on HS 578T breast, in the assay with MCF7 breast, in the assay on NCI/ADR-RES ovarian and with T-47D breast was above 100 µM in each case.

Take `O=C1CCc2c(sc3[nH]c(=S)n(Cc4ccc(Cl)cc4)c(=O)c23)C1`: the GI50 in the assay on BT-549 breast was 0.363 µM; with HS 578T breast, 0.46 µM; with MCF7 breast it was 2.22 µM; with MDA-MB-231 breast it was 0.379 µM; in the assay with NCI/ADR-RES ovarian it was 0.408 µM; with T-47D breast, 0.377 µM. For the same molecule, the TGI was 3.03 µM with BT-549 breast; above 100 µM in the assay with HS 578T breast; above 38.6 µM in the assay with MCF7 breast; 1.68 µM with MDA-MB-231 breast; above 41.8 µM in the assay with NCI/ADR-RES ovarian; 3.59 µM in the assay with T-47D breast.

Take `CSc1nc(SC)c2c(CO)c(Br)n(Cc3ccccc3)c2n1`: the TGI is 62.4 µM with BT-549 breast; 58.9 µM with HS 578T breast; above 100 µM in the assay on MCF7 breast; 36.5 µM in the assay on MDA-MB-231 breast; above 100 µM with NCI/ADR-RES ovarian; 74.2 µM in the assay on T-47D breast.

In the case of `C=C1CC2(OC1=O)C(=O)Nc1ccccc12` (stereo unspecified), the GI50 with BT-549 breast is 4.24 µM; in the assay on HS 578T breast it was 11 µM; in the assay with MCF7 breast, 2.14 µM; in the assay with MDA-MB-231 breast it was 4.62 µM; in the assay on NCI/ADR-RES ovarian it was 2.86 µM; in the assay with T-47D breast, 1.13 µM. Further, the TGI turned out to be 17.1 µM in the assay on BT-549 breast; 56.6 µM in the assay with HS 578T breast; 6.17 µM in the assay with MCF7 breast; 17 µM in the assay on MDA-MB-231 breast; 11.2 µM with NCI/ADR-RES ovarian; 2.92 µM in the assay on T-47D breast.

As for `CN(Cc1cc(C(C)(C)C)cc(Br)c1O)Cc1cc(C(C)(C)C)cc(Br)c1O`, the TGI with BT-549 breast came out at 14.4 µM; with HS 578T breast, 7.65 µM; with MCF7 breast it was 10.7 µM; with MDA-MB-231 breast it was 6.91 µM; with NCI/ADR-RES ovarian, 11.1 µM; with T-47D breast it was 12.3 µM.

Consider `COc1cc(Nc2ncc(F)c(Nc3ccc4c(n3)N(COP(=O)(O)O)C(=O)C(C)(C)O4)n2)cc(OC)c1OC`, for which the GI50 in the assay with BT-549 breast is 1.56 µM and 1.57 µM; in the assay with HS 578T breast, 0.538 µM and 0.173 µM; with MCF7 breast, 3.02 µM and 3.32 µM; in the assay with MDA-MB-231 breast, 1.67 µM and 1.35 µM; in the assay with NCI/ADR-RES ovarian, 2.99 µM and 3.01 µM; in the assay with T-47D breast, 2.92 µM and 1.24 µM. Also, the TGI in the assay with BT-549 breast is 4.45 µM and 6.5 µM; in the assay with HS 578T breast it was 4.27 µM and 0.59 µM; in the assay on MCF7 breast, 22.6 µM and > 10 µM; in the assay on MDA-MB-231 breast it was 5.07 µM and 7.69 µM; in the assay with NCI/ADR-RES ovarian it was 17.2 µM and > 10 µM; in the assay on T-47D breast, 26 µM and > 10 µM.

On to `CCN1CCN(CC(=O)N2c3cccc4cccc(c34)N(C(=O)CN3CCN(CC)CC3)C2c2cn(-c3ccccc3)nc2-c2cccc([N+](=O)[O-])c2)CC1`, for which the GI50 is 1.67 µM in the assay on BT-549 breast; 1.81 µM in the assay on HS 578T breast; 1.62 µM in the assay with MCF7 breast; 1.42 µM in the assay with MDA-MB-231 breast; 1.98 µM in the assay on NCI/ADR-RES ovarian; 1.66 µM in the assay on T-47D breast. The TGI with BT-549 breast was found to be 3.24 µM; with HS 578T breast, 4.17 µM; in the assay with MCF7 breast, 3.24 µM; in the assay with MDA-MB-231 breast, 2.88 µM; in the assay with NCI/ADR-RES ovarian it was 4.16 µM; in the assay with T-47D breast it was 3.7 µM.

Consider `CCN(CC)c1ccc(C(=O)c2ccc(N(CC)CC)cc2)cc1`, for which the GI50 in the assay with BT-549 breast was 0.629 µM; in the assay on HS 578T breast, 0.237 µM; in the assay with MCF7 breast, 0.416 µM; in the assay on MDA-MB-231 breast, 1.23 µM; in the assay on NCI/ADR-RES ovarian it was 0.355 µM; in the assay on T-47D breast it was 0.789 µM. Further, the TGI with BT-549 breast was 16.5 µM; in the assay on HS 578T breast it was 1 µM; with MCF7 breast, above 74.4 µM; with MDA-MB-231 breast it was 28.2 µM; in the assay with NCI/ADR-RES ovarian, 1.89 µM; in the assay with T-47D breast it was above 100 µM.

With `COC(=O)[C@@H](C)C[C@H](Cc1ccccc1)NC(=O)c1csc([C@@H](C[C@H](C(C)C)N(C)C(=O)[C@@H](NC(=O)[C@H]2CCCCN2C)C2CC2)OC(C)=O)n1`, the GI50 is 0.000506 µM and 0.00165 µM with BT-549 breast; 0.00112 µM and 0.00165 µM in the assay on HS 578T breast; 0.00143 µM and 0.00165 µM with MDA-MB-231 breast; 0.0488 µM and 0.0603 µM in the assay with NCI/ADR-RES ovarian. Further, the TGI in the assay with BT-549 breast was 0.0298 µM and 0.0146 µM; in the assay on HS 578T breast, above 16.5 µM; with MCF7 breast it was above 16.5 µM; in the assay with MDA-MB-231 breast, above 16.5 µM; in the assay with NCI/ADR-RES ovarian, above 16.5 µM.

`Cc1cnc(C(=O)NNc2nc3sc4c(c3c(=O)n2C)C(C)CCC4)cn1` (stereo unspecified): the GI50 in the assay with BT-549 breast is 1.03 µM; with HS 578T breast, 1.56 µM; in the assay on MCF7 breast, 0.29 µM; with MDA-MB-231 breast, 0.335 µM; in the assay with NCI/ADR-RES ovarian it was 0.392 µM; in the assay with T-47D breast, 0.416 µM. Also, the TGI was 14 µM in the assay with BT-549 breast; 17.1 µM in the assay with HS 578T breast; 1.7 µM in the assay on MCF7 breast; 4.04 µM in the assay with MDA-MB-231 breast; 10.8 µM with NCI/ADR-RES ovarian; 5.68 µM in the assay with T-47D breast.

For the molecule `Cc1cc(N2CCOCC2)cc2[nH]c(-c3c(NC[C@@H](O)c4cccc(Cl)c4)cc[nH]c3=O)nc12`, the GI50 was 1.83 µM in the assay with BT-549 breast; 1.04 µM in the assay with HS 578T breast; 0.233 µM in the assay with MCF7 breast; 1.22 µM in the assay with MDA-MB-231 breast; 2.83 µM in the assay with NCI/ADR-RES ovarian; 4.17 µM in the assay on T-47D breast. The TGI in the assay with BT-549 breast was 7.18 µM; in the assay with HS 578T breast, 4.42 µM; in the assay on MCF7 breast, 15.8 µM; in the assay on MDA-MB-231 breast, 5.37 µM; in the assay on NCI/ADR-RES ovarian it was 12.3 µM; in the assay with T-47D breast, 37.8 µM.

On to `O=C1c2ccccc2-c2c1c1ccccc1c(=O)n2CCCn1ccnc1`, for which the GI50 was 3.36 µM with BT-549 breast; 7.92 µM with HS 578T breast; 0.902 µM in the assay on MCF7 breast; 2.08 µM with MDA-MB-231 breast; 1.81 µM with NCI/ADR-RES ovarian; 3.28 µM with T-47D breast. The TGI with BT-549 breast is above 100 µM; in the assay with HS 578T breast it was 94.7 µM; in the assay with MCF7 breast it was above 100 µM; in the assay on MDA-MB-231 breast it was 5.8 µM; with NCI/ADR-RES ovarian, 6.09 µM; in the assay with T-47D breast, above 100 µM.

`CCOc1ccc2nc(NC(=O)C(=O)C(c3cnc4ccccc4n3)[N+](=O)[O-])sc2c1` (stereo unspecified): the TGI in the assay with BT-549 breast, in the assay on HS 578T breast, with MCF7 breast, in the assay with MDA-MB-231 breast, in the assay with NCI/ADR-RES ovarian and with T-47D breast was above 100 µM throughout.

`CC(C)=CC1=C2C3=C(C(=O)C4(O)Oc5c(C)c6c7c(c5OC24C)[C@@H](C)CC[C@@H]7[C@@H](C)C[C@H]6C=C(C)C)C(C)CCC3C(C)C1` (stereo partly specified): the GI50 in the assay on BT-549 breast, in the assay on HS 578T breast, with MCF7 breast, in the assay with MDA-MB-231 breast and in the assay on NCI/ADR-RES ovarian was above 100 µM each time. Also, the TGI in the assay with BT-549 breast, with HS 578T breast, in the assay with MCF7 breast, with MDA-MB-231 breast and in the assay on NCI/ADR-RES ovarian was above 100 µM in each case.

With `C=C1C(=O)O[C@H]2[C@H]1CC/C(Cn1cc(-c3ccccc3C(F)(F)F)nn1)=C\CC[C@@]1(C)O[C@@H]21`, the GI50 in the assay with BT-549 breast is 2.4 µM; with HS 578T breast, 3.57 µM; in the assay on MDA-MB-231 breast, 1.64 µM; with NCI/ADR-RES ovarian, 2.99 µM; in the assay on T-47D breast it was 1.7 µM. In addition, the TGI in the assay on BT-549 breast stood at 8.28 µM; in the assay on HS 578T breast it was 26.7 µM; with MDA-MB-231 breast it was 3.75 µM; with NCI/ADR-RES ovarian, 15.1 µM; with T-47D breast it was 4.71 µM.

Regarding `Oc1ccc2oc3ncc(Br)c(-c4ccccc4)c3c2c1`, the GI50 was 76.9 µM in the assay with BT-549 breast, above 100 µM with MCF7 breast and above 100 µM in the assay with NCI/ADR-RES ovarian. For the same molecule, the TGI with BT-549 breast, in the assay on MCF7 breast and in the assay with NCI/ADR-RES ovarian was above 100 µM throughout.

As for `CCOC(=O)c1c2c(n3ccccc13)C(=O)c1ncccc1C2=O`, the GI50 in the assay on BT-549 breast is 0.0637 µM; in the assay with MCF7 breast, 0.0284 µM; with MDA-MB-231 breast it was 2.76 µM; in the assay with NCI/ADR-RES ovarian, 0.0348 µM; with T-47D breast, 2.51 µM. For the same molecule, the TGI in the assay with BT-549 breast is 41 µM; with MCF7 breast it was 1.77 µM; in the assay on MDA-MB-231 breast it was above 100 µM; in the assay on NCI/ADR-RES ovarian it was 3.09 µM; in the assay on T-47D breast it was 47.8 µM.
